Source: paper PMC6503114, “Application of Antimicrobial Peptides of the Innate Immune System in Combination With Conventional Antibiotics—A Novel Way to Combat Antibiotic Resistance?” (Frontiers in Cellular and Infection Microbiology, 2019)
Where a SMILES comes first, the peptide text is derived from it. Bridges are numbered along the chain shown (N, C = ends).

What was measured:
[1] = system: E. coli ML-35p; experiment: microbe, parasite or virus in culture; format: cell-based, Escherichia coli; conditions: median of 3–6 experiments, value in square brackets = twice the maximal tested concentration
Description: Prior to the “checkerboard” synergy test the minimal inhibitory concentrations (MIC) of individual substances were determined using broth microdilution assay. Testing was performed in 60-well polystyrene Terasaki microplates with V-shaped bottom generally according to the guidelines of the European Committee for Antimicrobial Susceptibility Testing with subtle modifications designed for AMP testing (Tossi et al., [1997]; Wiegand et al., [2008]). Cultivation of bacteria was carried out in 2.1% Müller-Hinton broth at 37°C with shaking. Two-fold serial dilutions of peptides, antibiotics and other antimicrobials were made with 10 mM sodium phosphate buffer, pH 7.4, containing 0.1% of BSA. The plates were preliminary incubated with 0.1% BSA for 1 h at 37°C to reduce a non-specific binding of peptides to the plates. After that BSA was removed, and serial dilutions were added into the plate wells in triplicates followed by the same volume of the suspension of bacterial cells in logarithmic phase of growth in concentration of 1 × 10^6 CFU/ml. After the 18 h overnight incubation at 37°C, the MIC value for each compound was determined as its lowest concentration completely inhibiting the visible growth of bacteria. The final results were calculated as median values based on 3–6 independent experiments.

[2] = system: K562
Description: (§1) The human erythromyeloid leukemia cell line K562 was obtained from the collection of the Institute of Cytology RAS (Saint Petersburg, Russia) and cultured in RPMI-1640 medium containing gentamicin (100 μg/ml) and 10% of fetal bovine serum at 37°C, 5% CO2. […] Drug resistance was maintained by monthly selection with the antibiotic (2 μg/ml in the culturing medium). Doxorubicin was removed from the medium 3 days prior to beginning any experiments. Before the testing K562 cells were washed twice with PBS and resuspended in RPMI-1640 in the same way as the other cell types.
(§2) We calculated Fractional Effective Concentration Index (FECI), which could be seen as a particular case of the interaction index (I) proposed by Berenbaum ([1977]) or of the similar combination index (CI) proposed by Chou and Talalay ([1983]), according to the equation below: […]
(§3) Here, [MEC A] and [MEC B] are the minimum effective concentrations (MEC) of substances A and B, when they are used alone. […] [A] and [B] are respective concentrations of substances A and B in their combination, where the same statistically significant difference is detected. A non-parametric Mann-Whitney U-test (p < 0.05 or p < 0.01) was used for the mentioned statistical comparison.
(§4) We have chosen the same intervals as that of FICI to determine synergy, additivity, independent action, and antagonism based on the minimal FECI values. However, in case of cytotoxic or hemolytic effect we were interested mainly in testing the possibility of additive or synergistic interaction itself, and not in assessing the exact magnitude of such interaction. Thus, in contrast to the “checkerboard titration” method used for combined antimicrobial activity investigation, studying the combined cytotoxic effect, we considered only two combinations of concentrations for the substances A and B in the mixture: • (½ MEC A + ½ MEC B), which, if found effective, provides the FECI value of 1 (the threshold value for additivity); • (¼ MEC A + ¼ MEC B), which, if found effective, provides the FECI value of 0.5 (the threshold value for synergetic interaction).
(§5) When action on tumor cells was tested in combination with antitumor antibiotic the lower concentrations up to ( 1/16 MEC A + 1/16 MEC B) as in checkerboard titration were additionally examined to assess the magnitude of synergistic effect more precisely. The final conclusion was made based on the three independent experiments.
(§6) Standard MTT-test (Mosmann, [1983]) was used for the examination of the cytotoxic activity of antimicrobial compounds and their combinations toward varied eukaryotic cells. Briefly, cell suspensions in RPMI-1640 prepared as described in Eukaryotic Cells were dispensed into the 96-well microplates (2 × 10^5 cells/well). Then, serial dilutions of AMPs, or other antibiotic compounds, or their mixtures in RPMI-1640 were added. In positive controls (100% cell survival) the according volume of RPMI-1640 without test substances was added instead. The final volume in each well was 100 μl. Negative controls (0% cell survival) were made with 100 μl of the sterile RPMI-1640. The plates were incubated at 37°C under 5% CO2 for 24 h. Four hours before the end of incubation, 10 μl of metabolic marker MTT−3-(4,5-dimethylthiazol-2-yl)-2,5-diphenyltetrazolium bromide (5 mg/ml, diluted in PBS) was added to each well. Incubation was stopped by adding 90 μl of isopropanol containing 0.04 M HCl. Content of the wells was thoroughly mixed, so that the formazan crystals, formed in case of the reduction of MTT in presence of actively metabolizing cells, were fully dissolved.

[3] = system: doxorubicin-resistant K562 tumor cells; conditions: for MEC: doxorubicin-resistant K562 cell line; for enhancement in MEC values comparing susceptible and resistant cell lines: doxorubicin-resistant vs susceptible K562
Description: as §1, §2, §3, §4, §5, §6

[4] = system: Murine EAC; experiment: MTT-test; format: cell-based, mice; conditions: Murine EAC tumor cells, 24 h
Description: (§7) Before the cells extraction, mice were sacrificed by cervical dislocation in accordance with the supplement to the Directive 86/609/EEC and its update Directive 2010/63/EU addressing the recommendations for euthanasia of experimental animals (Close et al., [1996]). To obtain peritoneal macrophages, healthy mice were used. The abdominal cavity of each animal was washed with 3 ml of sterile PBS using a Pasteur pipette. The culture of EAC cells was kindly provided by Dr. E.P. Kiseleva (Immunology Department of the Institute of Experimental Medicine, Saint Petersburg, Russia). On the tenth day after the intraperitoneal tumor inoculation, 0.5–1.5 ml of ascitic fluid containing EAC cells was obtained from the abdominal cavity of the animals. Murine cells (normal or tumor) were washed twice with 10 ml of sterile PBS and resuspended in RPMI-1640 medium as described above for human neutrophils and PBMC.
as §2, §3, §4, §5, §6

[5] = system: Human neutrophils
Description: The pellet formed under the Ficoll-400 layer after separation contained both neutrophils and erythrocytes. It was also transferred into a separate tube, where the red blood cells were lysed with 0.83% ammonium chloride solution, which was added in a ratio of 1:4. After the thorough mixing, the suspension was incubated for 10 min at room temperature, and then centrifuged for 10 min at 300 g and 4°C. The resulting precipitate containing neutrophils was washed twice with the sterile PBS.
as §2, §3, §4, §5
as §6, with “dissolved. The optical density of the samples was evaluated at 540 nm, subtracting the background absorbance at 690 nm, by SpectraMax 250 Spectrophotometer (Molecular Devices, USA). The experiments were repeated at least three times. In each experiment test samples were made in triplicates and control samples were made in hexaplicates.” for “dissolved.”

[6] = system: Human PBMC; experiment: MTT-test
Description: To obtain neutrophils and mononuclear cells, whole heparinized blood was diluted with sterile PBS in a 1:1 ratio and carefully inserted into the sterile polystyrene 50 ml tube upon the 5 ml of the sterile Ficoll-400 (Pharmacia, Sweden) with a density of 1.077. The tube was centrifuged at 600 g and 4°C for 40 min. After separation, the mononuclear “ring” located between the blood plasma and Ficoll was collected with a Pasteur pipette, transferred to another tube, and washed twice with 10 ml of sterile PBS by centrifugation for 10 min at 300 g and 4°C.
as §2, §3, §4, §5
as §6, with “dissolved. The optical density of the samples was evaluated at 540 nm, subtracting the background absorbance at 690 nm, by SpectraMax 250 Spectrophotometer (Molecular Devices, USA). The experiments were repeated at least three times. In each experiment test samples were made in triplicates and control samples were made in hexaplicates.” for “dissolved.”

[7] = system: Murine peritoneal macrophages; experiment: MTT-test
Description: as §7, §2, §3, §4, §5, §6

| Compound | MIC [1] | MEC ([2]; susceptible K562 cell line) [µg/mL] | MEC [3] | enhancement in MEC values comparing susceptible and resistant cell lines [3] [times] | MEC of cytotoxic action [4] [µM] | MEC of cytotoxic action [5] [µM] | minimal FECI (combined cytotoxic action) [2] | MEC of cytotoxic action ([2]; K562 tumor cells (doxorubicin-sensitive), MTT, 24 h) [µM] | minimal FECI (combined cytotoxic action) [3] | MEC of cytotoxic action [6] [µM] | MEC of cytotoxic action [7] [µM] |
| --- | --- | --- | --- | --- | --- | --- | --- | --- | --- | --- | --- |
| CC[C@H](C)[C@@H]1NC(=O)[C@H](CC(C)C)NC(=O)[C@@H]2CSSC[C@@H]3NC(=O)[C@H](CO)NC(=O)[C@@H](NC(=O)[C@@H](N)C(C)C)CSSC[C@@H](C(=O)N[C@H](C(=O)N[C@@H](CCCNC(=N)N)C(=O)N[C@H](C(=O)O)C(C)C)[C@@H](C)O)NC(=O)[C@H](CSSC[C@H](NC(=O)[C@H](Cc4ccccc4)NC(=O)[C@H](C(C)C)NC(=O)[C@H](CC(C)C)NC(=O)[C@H](CCCNC(=N)N)NC3=O)C(=O)N[C@@H](CCCNC(=N)N)C(=O)N[C@@H](CCCNC(=N)N)C(=O)N[C@@H]([C@@H](C)O)C(=O)N[C@@H](CCC(=O)O)C(=O)N[C@@H](CC(C)C)C(=O)N[C@@H](CCCNC(=N)N)C(=O)N[C@@H](C(C)C)C(=O)NCC(=O)N[C@@H](CC(N)=O)C(=O)N2)NC(=O)[C@H](Cc2ccc(O)cc2)NC(=O)[C@H]([C@@H](C)O)NC(=O)[C@H](Cc2ccccc2)NC(=O)[C@H](CO)NC(=O)[C@H](C(C)C)NC(=O)CNC(=O)CNC1=O [HNP-4] (H-VCSCRLVFCRRTELRVGNCLIGGVSFTYCCTRV-OH; disulfide 2-30, 4-19, 9-29 (inferred); N-terminus and C-terminus assumed) | >100 [200] μM | – | – | – | – | – | – | – | – | – | – |
| COc1cccc2c1C(=O)c1c(O)c3c(c(O)c1C2=O)C[C@@](O)(C(=O)CO)C[C@@H]3O[C@H]1C[C@H](N)[C@H](O)[C@H](C)O1 [doxorubicin] | – | 1 | 100 µg/mL | 100 | – | – | – | – | – | – | – |
| CC(C)C[C@H](NC(=O)[C@H](CCCNC(=N)N)NC(=O)CNC(=O)CNC(=O)[C@@H](N)CCCNC(=N)N)C(=O)N[C@H]1CSSC[C@@H](C(=O)N[C@H](C(=O)NCC(=O)N[C@@H](CCCNC(=N)N)C(N)=O)C(C)C)NC(=O)[C@H](C(C)C)NC(=O)[C@@H]2CSSC[C@H](NC(=O)[C@H](Cc3ccc(O)cc3)NC1=O)C(=O)N[C@@H](CCCNC(=N)N)C(=O)N[C@@H](CCCNC(=N)N)C(=O)N[C@@H](CCCNC(=N)N)C(=O)N[C@@H](Cc1ccccc1)C(=O)N2 [PG-1, protegrin 1] | – | – | 5.0 µM | 4 | 1.25 | 2.5 | 0.25 | 1.25 | 0.38 | 5.0 | 2.5 |
